From ChEMBL document CHEMBL1201862, “PubChem BioAssay data set” (2004)
Values belong to the compound of their own block, whether it stands above or below them. Activity calls are given as the source filed them.

Experiments:
[1] = biological target: T1, Apoptotic protease-activating factor 1 (Homo sapiens, UniProt O14727); assay type: functional
T1 sequence (O14727 whole entry): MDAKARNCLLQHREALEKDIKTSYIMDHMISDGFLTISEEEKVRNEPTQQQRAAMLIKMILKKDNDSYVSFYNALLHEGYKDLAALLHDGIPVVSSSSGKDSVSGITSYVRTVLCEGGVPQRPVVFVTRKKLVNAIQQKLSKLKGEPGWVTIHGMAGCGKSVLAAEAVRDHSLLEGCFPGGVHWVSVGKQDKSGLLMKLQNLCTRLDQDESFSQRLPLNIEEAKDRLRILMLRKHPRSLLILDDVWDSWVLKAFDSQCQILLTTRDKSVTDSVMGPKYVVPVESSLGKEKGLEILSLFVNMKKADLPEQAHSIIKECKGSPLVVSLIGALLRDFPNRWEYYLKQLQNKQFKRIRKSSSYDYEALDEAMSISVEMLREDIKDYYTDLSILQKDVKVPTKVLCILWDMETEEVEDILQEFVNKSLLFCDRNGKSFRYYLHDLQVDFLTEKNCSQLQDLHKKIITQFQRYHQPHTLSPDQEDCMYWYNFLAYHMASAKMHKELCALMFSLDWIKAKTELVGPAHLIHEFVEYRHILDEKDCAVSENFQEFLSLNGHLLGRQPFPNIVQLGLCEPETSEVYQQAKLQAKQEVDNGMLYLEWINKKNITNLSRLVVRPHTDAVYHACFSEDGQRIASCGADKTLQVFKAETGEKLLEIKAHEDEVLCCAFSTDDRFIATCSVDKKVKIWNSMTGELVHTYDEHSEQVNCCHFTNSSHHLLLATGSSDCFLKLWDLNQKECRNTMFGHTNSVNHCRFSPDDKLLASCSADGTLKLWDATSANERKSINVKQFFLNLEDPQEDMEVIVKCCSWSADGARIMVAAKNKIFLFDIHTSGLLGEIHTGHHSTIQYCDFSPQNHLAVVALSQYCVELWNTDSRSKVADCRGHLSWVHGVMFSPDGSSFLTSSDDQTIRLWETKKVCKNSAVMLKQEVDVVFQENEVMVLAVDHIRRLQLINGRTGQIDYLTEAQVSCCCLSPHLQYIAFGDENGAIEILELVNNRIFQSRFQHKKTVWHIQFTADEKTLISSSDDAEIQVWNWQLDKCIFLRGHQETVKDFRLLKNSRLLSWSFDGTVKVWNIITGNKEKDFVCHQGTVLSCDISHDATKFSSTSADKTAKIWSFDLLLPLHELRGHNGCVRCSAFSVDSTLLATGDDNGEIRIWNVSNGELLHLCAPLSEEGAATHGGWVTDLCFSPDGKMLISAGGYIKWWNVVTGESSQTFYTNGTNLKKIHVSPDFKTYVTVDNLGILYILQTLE

Caspase-3 = biological target: T2, Caspase-3 (Homo sapiens, UniProt P42574); test: SAR Analysis of small molecule inhibitors of Sentrin-specific proteases (SENPs) using a Caspase-3 Selectivity assay. [Related pubchem assays (depositor defined):AID2540, AID2599, AID434973, AID489001]; assay type: functional
T2 sequence (P42574 whole entry): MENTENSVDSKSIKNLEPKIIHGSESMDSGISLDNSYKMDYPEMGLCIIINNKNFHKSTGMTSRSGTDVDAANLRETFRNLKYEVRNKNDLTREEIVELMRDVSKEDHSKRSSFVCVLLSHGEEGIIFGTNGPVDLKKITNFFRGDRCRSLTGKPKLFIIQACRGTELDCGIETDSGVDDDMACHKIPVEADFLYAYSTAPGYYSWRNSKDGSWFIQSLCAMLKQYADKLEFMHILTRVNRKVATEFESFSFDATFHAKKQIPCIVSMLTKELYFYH

[2] = biological target: Mitogen-activated protein kinase 9 (Homo sapiens, UniProt P45984); assay type: functional;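 note: value from a kinome panel profiling assay, MAPK9 panel entry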
Mitogen-activated protein kinase 9, sequence (P45984 whole entry): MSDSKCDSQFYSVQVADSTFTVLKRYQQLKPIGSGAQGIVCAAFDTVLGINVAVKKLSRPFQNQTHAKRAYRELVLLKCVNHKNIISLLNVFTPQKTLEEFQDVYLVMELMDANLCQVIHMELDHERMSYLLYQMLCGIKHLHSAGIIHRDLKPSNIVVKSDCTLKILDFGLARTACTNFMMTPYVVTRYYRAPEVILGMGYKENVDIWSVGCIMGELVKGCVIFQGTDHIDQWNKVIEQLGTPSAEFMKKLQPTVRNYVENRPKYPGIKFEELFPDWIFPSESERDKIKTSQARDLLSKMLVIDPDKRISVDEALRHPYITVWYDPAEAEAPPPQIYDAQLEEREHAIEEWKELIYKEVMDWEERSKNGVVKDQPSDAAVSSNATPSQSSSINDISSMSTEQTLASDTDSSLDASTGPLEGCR

[3] = biological target: Serine/threonine-protein kinase TBK1 (Homo sapiens, UniProt Q9UHD2); test: Navigating the Kinome. Panel member name: TBK1; assay type: functional
Activated CDC42 kinase 1 = Activated CDC42 kinase 1 (Homo sapiens, UniProt Q07912); test: Navigating the Kinome. Panel member name: ACK1; assay type: functional
[4] = biological target: Mitogen-activated protein kinase 8 (Homo sapiens, UniProt P45983); assay type: functional;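 note: value comes from one member of a kinome-wide kinase profiling panel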
[5] = biological target: Macrophage colony-stimulating factor 1 receptor (Homo sapiens, UniProt P07333); assay type: functional;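 note: value comes from the Navigating the Kinome screening panel, CSF1R member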
[6] = biological target: Platelet-derived growth factor receptor alpha (Homo sapiens, UniProt P16234); test: Navigating the Kinome. Panel member name: PDGFRA; assay type: functional
[7] = biological target: Calcium/calmodulin-dependent protein kinase type II subunit alpha (Homo sapiens, UniProt Q9UQM7); test: Navigating the Kinome. Panel member name: CAMK2A; assay type: functional
[8] = biological target: Tyrosine-protein kinase JAK3 (Homo sapiens, UniProt P52333); assay type: functional
[9] = biological target: Serine/threonine-protein kinase D3 (Homo sapiens, UniProt O94806); assay type: functional;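 note: determined within a kinase panel screen, with PRKCN as the panel member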
Serine/threonine-protein kinase D3, sequence (O94806 whole entry, canonical isoform): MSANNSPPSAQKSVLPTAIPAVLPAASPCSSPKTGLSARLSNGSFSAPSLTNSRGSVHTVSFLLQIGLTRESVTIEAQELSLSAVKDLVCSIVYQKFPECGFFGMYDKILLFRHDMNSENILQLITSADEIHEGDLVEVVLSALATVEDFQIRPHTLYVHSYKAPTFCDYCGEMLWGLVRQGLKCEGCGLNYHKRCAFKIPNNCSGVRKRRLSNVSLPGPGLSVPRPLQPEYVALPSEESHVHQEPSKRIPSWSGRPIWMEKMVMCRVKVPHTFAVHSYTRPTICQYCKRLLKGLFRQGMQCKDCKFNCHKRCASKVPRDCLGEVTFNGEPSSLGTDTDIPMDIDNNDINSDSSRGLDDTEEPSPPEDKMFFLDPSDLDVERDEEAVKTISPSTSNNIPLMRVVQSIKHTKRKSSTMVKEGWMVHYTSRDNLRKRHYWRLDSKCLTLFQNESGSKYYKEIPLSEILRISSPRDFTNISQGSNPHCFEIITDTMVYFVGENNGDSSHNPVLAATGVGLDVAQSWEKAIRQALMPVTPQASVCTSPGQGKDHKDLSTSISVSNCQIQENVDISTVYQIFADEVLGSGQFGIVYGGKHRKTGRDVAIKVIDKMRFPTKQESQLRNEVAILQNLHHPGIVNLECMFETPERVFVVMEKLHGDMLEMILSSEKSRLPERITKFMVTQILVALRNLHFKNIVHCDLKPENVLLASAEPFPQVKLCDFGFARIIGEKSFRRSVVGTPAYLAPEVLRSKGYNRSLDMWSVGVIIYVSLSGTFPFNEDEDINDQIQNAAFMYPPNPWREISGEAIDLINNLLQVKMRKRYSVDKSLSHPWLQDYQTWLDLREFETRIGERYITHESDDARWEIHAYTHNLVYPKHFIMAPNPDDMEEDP

[10] = biological target: Casein kinase I isoform alpha (Homo sapiens, UniProt P48729); assay type: functional
Casein kinase I isoform alpha, sequence (P48729 whole entry, canonical isoform): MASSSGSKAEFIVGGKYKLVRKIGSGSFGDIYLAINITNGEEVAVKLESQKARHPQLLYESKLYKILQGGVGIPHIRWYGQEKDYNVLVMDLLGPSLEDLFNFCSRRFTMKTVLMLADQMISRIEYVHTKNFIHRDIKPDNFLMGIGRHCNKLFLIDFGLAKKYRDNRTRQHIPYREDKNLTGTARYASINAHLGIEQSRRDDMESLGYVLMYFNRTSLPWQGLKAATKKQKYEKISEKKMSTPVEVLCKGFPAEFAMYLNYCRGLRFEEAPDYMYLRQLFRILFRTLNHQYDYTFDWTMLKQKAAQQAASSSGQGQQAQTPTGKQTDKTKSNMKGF

[11] = biological target: Cyclin-dependent kinase 5 (Homo sapiens, UniProt Q00535); assay type: functional;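 note: CDK5 measured as one member of a kinase profiling panel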
[12] = biological target: Cyclin-dependent kinase 7 (Homo sapiens, UniProt P50613); assay type: functional;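 note: value comes from a kinome-wide kinase profiling panel in which CDK7 is one member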
[13] = biological target: Rho-associated protein kinase 1 (Homo sapiens, UniProt Q13464); assay type: functional;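 note: measured within a broad kinome-wide panel profiling many kinases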
Rho-associated protein kinase 1, sequence (Q13464 whole entry): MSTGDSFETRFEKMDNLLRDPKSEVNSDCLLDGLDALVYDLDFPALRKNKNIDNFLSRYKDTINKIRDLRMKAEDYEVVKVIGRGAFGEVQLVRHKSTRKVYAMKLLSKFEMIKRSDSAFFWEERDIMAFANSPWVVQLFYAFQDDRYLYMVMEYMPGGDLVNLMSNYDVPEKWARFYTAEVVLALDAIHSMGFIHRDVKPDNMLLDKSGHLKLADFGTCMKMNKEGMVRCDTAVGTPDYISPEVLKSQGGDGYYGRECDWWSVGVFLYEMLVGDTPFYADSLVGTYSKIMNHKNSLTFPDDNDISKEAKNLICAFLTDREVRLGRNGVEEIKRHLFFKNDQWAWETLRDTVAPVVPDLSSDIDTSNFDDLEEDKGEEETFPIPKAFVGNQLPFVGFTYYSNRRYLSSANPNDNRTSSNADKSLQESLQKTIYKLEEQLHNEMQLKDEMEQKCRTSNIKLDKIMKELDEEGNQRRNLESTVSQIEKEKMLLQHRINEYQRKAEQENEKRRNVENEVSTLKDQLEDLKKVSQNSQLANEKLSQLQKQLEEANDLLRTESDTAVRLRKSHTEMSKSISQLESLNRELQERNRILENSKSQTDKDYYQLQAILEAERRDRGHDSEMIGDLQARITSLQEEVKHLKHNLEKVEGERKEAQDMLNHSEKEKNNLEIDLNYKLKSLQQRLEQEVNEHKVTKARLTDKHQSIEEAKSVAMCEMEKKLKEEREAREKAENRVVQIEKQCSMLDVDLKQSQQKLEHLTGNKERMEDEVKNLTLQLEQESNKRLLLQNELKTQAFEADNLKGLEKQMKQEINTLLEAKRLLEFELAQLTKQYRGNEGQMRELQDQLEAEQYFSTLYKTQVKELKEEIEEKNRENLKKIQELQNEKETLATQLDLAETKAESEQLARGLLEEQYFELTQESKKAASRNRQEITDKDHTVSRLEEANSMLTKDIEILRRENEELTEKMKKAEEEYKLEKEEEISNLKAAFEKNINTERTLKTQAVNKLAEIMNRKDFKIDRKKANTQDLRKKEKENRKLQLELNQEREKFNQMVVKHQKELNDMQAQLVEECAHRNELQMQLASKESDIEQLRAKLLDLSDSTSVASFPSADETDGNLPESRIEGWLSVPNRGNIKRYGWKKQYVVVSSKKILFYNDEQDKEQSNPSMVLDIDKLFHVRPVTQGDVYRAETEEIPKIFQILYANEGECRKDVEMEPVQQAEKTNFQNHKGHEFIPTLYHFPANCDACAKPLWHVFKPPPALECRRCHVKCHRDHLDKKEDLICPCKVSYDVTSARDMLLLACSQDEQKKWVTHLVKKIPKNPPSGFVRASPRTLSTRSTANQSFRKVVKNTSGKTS

[14] = biological target: Serine/threonine-protein kinase PAK 4 (Homo sapiens, UniProt O96013); assay type: functional;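 note: value obtained within a kinome profiling panel in which PAK4 was one of the panel members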
[15] = biological target: Tyrosine-protein kinase receptor TYRO3 (Homo sapiens, UniProt Q06418); assay type: functional;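 note: TYRO3 value obtained as one member of a kinome-wide profiling panel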
Tyrosine-protein kinase receptor TYRO3, sequence (Q06418 whole entry): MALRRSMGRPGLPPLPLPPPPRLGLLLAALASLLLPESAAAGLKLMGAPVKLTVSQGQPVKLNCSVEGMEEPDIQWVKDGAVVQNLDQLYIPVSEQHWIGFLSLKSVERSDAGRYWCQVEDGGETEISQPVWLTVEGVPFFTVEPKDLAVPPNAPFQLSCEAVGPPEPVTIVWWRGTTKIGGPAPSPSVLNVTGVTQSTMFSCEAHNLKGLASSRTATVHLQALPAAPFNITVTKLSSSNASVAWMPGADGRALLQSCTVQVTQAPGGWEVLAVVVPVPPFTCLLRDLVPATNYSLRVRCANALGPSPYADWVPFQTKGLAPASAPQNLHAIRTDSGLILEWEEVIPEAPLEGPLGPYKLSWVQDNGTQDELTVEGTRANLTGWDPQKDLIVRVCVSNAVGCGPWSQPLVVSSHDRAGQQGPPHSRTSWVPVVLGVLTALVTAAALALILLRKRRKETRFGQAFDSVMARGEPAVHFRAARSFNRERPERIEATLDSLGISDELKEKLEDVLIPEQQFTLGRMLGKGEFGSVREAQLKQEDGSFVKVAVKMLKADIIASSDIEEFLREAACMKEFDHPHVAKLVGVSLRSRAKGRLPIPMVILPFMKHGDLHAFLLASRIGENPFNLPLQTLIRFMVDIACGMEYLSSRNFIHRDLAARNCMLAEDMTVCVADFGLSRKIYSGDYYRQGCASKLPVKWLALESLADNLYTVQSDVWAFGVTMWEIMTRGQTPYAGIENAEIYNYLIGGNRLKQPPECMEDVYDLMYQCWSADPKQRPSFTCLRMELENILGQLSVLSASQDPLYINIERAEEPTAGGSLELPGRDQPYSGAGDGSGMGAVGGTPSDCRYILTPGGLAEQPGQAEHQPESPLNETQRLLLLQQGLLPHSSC

Genome polyprotein = Genome polyprotein (dengue virus type 2, UniProt P29990); test: Dengue-2 NS5 methyltransferase inhibitors, primary screen, biochemical, confirmation dose response (AID 588689); assay type: functional
HEK293 = test: HEK cell cytotoxicity by LDH release, dose response, cytotoxicity control for IDE activator project, fluorescence, HEK cells (AID 588440); assay type: functional, cell-based; conditions: Homo sapiens;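 note: cytotoxicity by LDH release measuring loss of membrane integrity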
Beta-galactosidase = Beta-galactosidase (Escherichia coli, UniProt Q8VNN2); test: beta-galactosidase enzyme inhibitors and activators, dose response, artefact control for CCR6 antagonist project, biochemical, E. coli enzyme, set 3 (AID 504712); assay type: functional
Beta-galactosidase, sequence (Q8VNN2 whole entry): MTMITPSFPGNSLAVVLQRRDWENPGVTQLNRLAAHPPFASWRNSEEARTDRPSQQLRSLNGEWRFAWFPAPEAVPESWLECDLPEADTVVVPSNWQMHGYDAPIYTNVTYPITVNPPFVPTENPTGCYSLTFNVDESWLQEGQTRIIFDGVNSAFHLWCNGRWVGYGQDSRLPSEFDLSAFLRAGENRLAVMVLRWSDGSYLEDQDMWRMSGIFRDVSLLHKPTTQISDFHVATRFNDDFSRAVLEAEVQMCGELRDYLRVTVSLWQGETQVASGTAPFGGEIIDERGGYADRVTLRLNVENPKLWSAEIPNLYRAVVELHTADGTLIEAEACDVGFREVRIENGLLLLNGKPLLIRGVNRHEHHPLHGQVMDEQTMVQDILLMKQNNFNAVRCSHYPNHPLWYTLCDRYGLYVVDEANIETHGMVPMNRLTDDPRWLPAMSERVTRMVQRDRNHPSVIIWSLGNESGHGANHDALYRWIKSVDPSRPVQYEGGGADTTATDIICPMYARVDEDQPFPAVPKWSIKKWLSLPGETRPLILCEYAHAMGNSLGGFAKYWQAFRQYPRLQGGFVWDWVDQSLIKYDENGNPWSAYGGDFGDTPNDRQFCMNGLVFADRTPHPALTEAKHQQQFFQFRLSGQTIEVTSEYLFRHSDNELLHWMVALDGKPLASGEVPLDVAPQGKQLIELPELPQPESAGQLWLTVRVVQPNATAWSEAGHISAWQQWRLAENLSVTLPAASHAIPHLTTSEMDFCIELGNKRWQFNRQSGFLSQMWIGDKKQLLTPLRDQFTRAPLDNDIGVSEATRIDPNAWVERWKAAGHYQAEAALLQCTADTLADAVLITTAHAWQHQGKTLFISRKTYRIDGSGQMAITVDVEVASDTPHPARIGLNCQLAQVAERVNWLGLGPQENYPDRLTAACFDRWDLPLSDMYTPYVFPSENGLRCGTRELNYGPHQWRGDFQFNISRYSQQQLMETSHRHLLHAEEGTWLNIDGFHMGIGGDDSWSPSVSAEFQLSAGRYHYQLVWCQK

IC50 [1]: 11.9 µM (active)
IC50 (Caspase-3): 16.5 µM (active)
Structure (SMILES): O=C(NNc1cc(N2CCCC2)nc(N2CCCC2)n1)c1ccc([N+](=O)[O-])cc1

Ki [2]: 3.16 µM (active)
Ki [3]: 2.51 µM (active)
Ki (Activated CDC42 kinase 1): > 3.98 µM (inactive)
Ki [4]: 1 µM (active)
Ki [5]: > 2.51 µM (inactive)
Ki [6]: 1.58 µM (active)
Ki [7]: 3.16 µM (active)
Ki [8]: > 5.01 µM (inactive)
Ki [9]: 3.16 µM (active)
Ki [10]: 0.631 µM (active)
Ki [11]: 1.58 µM (active)
Ki [12]: 1 µM (active)
Ki [13]: 3.16 µM (active)
Ki [14]: > 5.01 µM (inactive)
Ki [15]: 0.398 µM (active)
Structure (SMILES): O=C(Cc1cccs1)Nc1nc2ccccc2s1

Structure (SMILES): O=S(=O)(O)c1cccc2c(N=Nc3ccc(O)c4ncccc34)cccc12
IC50 (Genome polyprotein): 34.8 µM (active)
IC50 (HEK293): > 89.3 µM (inactive)
IC50 (Beta-galactosidase): 46.3 µM (inactive)
